Patent publication US8748412B2, “Phenylalanine derivatives and their use as non-peptide GLP-1 receptor modulators” (Argusina Bioscience Inc., priority 2011, dated 2014)
Where two headings read alike, the source gives them in different places.

Target: T1, human GLP1R (Homo sapiens, UniProt P43220)
T1 construct: expressed in transfected cells; host or cells: CHO cells (ATCC), transient transfection with pCMV-human GLP1R
Assay: Human GLP-1 receptor transfected cell assay (MRE/CRE-luciferase reporter gene, agonist activity)
Assay type: cell-based
Details: 6 h; for activation at 1 µM: concentration 1 μM; for activation at 3 µM: concentration 3 μM
Outline: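 CHO cells transiently co-transfected with human GLP1R and MRE/CRE-driven luciferase reporter plasmids. Compound or GLP-1 (7-36 amide) standard dilution series added for 6 h at 37 °C, 5% CO2. Agonist activity read as Bright-Glo luciferase luminescence.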

[1] = read-out: Activity (agonist), percentage of the activity of the control
[2] = concentration 10 μM, read-out: Activity (agonist), percentage of the activity of the control

T1 sequence (P43220 24-463): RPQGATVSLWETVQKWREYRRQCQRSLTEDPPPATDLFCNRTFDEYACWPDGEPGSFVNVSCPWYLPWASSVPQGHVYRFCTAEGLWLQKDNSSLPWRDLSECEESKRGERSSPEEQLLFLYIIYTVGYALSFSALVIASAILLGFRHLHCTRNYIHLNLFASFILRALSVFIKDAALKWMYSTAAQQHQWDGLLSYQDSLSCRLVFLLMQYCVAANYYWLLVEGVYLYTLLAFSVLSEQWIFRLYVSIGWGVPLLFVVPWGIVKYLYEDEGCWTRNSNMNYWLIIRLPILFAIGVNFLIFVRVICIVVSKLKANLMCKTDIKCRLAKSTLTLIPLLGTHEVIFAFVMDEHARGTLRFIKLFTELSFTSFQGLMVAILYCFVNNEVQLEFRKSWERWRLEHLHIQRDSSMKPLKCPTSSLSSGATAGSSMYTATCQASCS

SMILES | activation at 1 µM [1] [%] | activation at 10 µM [2] [%] | other results
Cc1ccc(S(=O)(=O)NC(Cc2ccc(-c3noc(-c4ccc(NC(=O)OC(C)(C)C)cc4)n3)c(F)c2)C(=O)O)cc1Cl (stereo not shown) [Compound 3P, 3-{4-[5-(4-tert-Butoxcarbonylamino-phenyl)-[1,2,4]oxadiazol-3-yl]-3-fluorophenyl}-2-(3-chloro-4-methyl-benzenesulfonylamino)-propionic acid] | 40 to 60 |  | 
CC(C)(C)OC(=O)Nc1ccc(-c2nc(-c3ccc(CC(NS(=O)(=O)c4ccc([N+](=O)[O-])cc4)C(=O)O)cc3F)no2)cc1 (stereo not shown) [Compound 11H] |  |  | activation at 10 µM (conc. 10 μM, percentage of the activity of the control, read-out: Agonist Activity): 40 to 60%
CC(C)(C)OC(=O)Nc1ccc(C(=O)Oc2ccc3c(c2)CN(C(=O)c2ccc(NC(=O)OC(C)(C)C)cc2)C(C(=O)O)C3)cc1 (stereo not shown) [Compound 5X] |  | > 60 | 
CC(=O)N(Cc1ccc(-c2ccc(C)cc2)o1)C(Cc1ccc(-c2noc(-c3ccc(NC(=O)OC(C)(C)C)cc3)n2)c(F)c1)C(=O)O (stereo not shown) [Compound 5G] |  | > 60 | 
CC(C)(C)OC(=O)Nc1ccc(-c2nc(-c3ccc(CC(NC(=O)Cc4ccc(-c5ccc(C(F)(F)F)cc5)cc4)C(=O)O)cc3F)no2)cc1 (stereo not shown) [Compound 5I] | > 60 |  | 
CC(C)(C)OC(=O)Nc1ccc(-c2nc(-c3ccc(CC(NC(=O)c4c[nH]c(-c5ccc(Br)cn5)n4)C(=O)O)cc3F)no2)cc1 (stereo not shown) [Compound 2V] |  |  | activation at 3.16 µM (concentration 3.16 μM, read-out: Activity (agonist), percentage of the activity of the control): 40 to 60%
CC(C)(C)OC(=O)Nc1ccc(-c2nc(-c3ccc(CC(NC(=O)N4CCC(c5ccccc5)C4)C(=O)O)cc3F)no2)cc1 (stereo not shown) [Compound 5D] |  |  | activation at 3 µM [1]: > 60%
Cc1cc(-n2cc(C(=O)NC(Cc3ccc(-c4noc(-c5ccc(NC(=O)OC(C)(C)C)cc5)n4)c(F)c3)C(=O)O)cn2)ccc1F (stereo not shown) [Compound 3G] |  |  | activation at 3 µM [1]: 40 to 60%

More lines, main results first:

activation at 1 µM [1] [%] | activation at 10 µM [2] [%] | SMILES | other results
 | 40 to 60 | CC(C)c1ccc(NC(=O)NC(Cc2ccc(-c3noc(-c4ccc(NC(=O)OC(C)(C)C)cc4)n3)c(F)c2)C(=O)O)cc1 (stereo not shown) [Compound 4W] | 
20 to 40 |  | CC(C)c1ccc(-c2ccc(C(=O)N[C@H](Cc3ccc(F)c(-c4noc(-c5ccc(NC(=O)OC(C)(C)C)cc5)n4)c3)C(=O)O)o2)cc1 [Compound 6V] | 
